Values of other authors in patent US8124123B2, “Controlled release azithromycin solid dosages forms” (Dow Pharmaceutical Sciences, Inc., priority 2007, dated 2012).

What was measured:
[1] = oral administration; reported with single 1000 mg dose and 1500 mg over 5 days

fraction of azithromycin released into the stomach that may be destroyed (about one hour in the stomach, low pH environment): approximately one third | chemical stability at pH 1 (pH found in stomach contents following a meal): chemically unstable
SMILES: CC[C@H]1OC(=O)[C@H](C)[C@@H](O[C@H]2C[C@@](C)(OC)[C@@H](O)[C@H](C)O2)[C@H](C)[C@@H](O[C@@H]2O[C@H](C)C[C@H](N(C)C)[C@H]2O)[C@](C)(O)C[C@@H](C)CN(C)[C@H](C)[C@@H](O)[C@]1(C)O [azithromycin, 9-deoxo-9a-aza-9a-methyl-9a-homoerythromycin A]
gastrointestinal side effects [1]: dose-related incidence of gastrointestinal side effects
